Experimental data from patent US9708314B2, “Heterocyclic amide compound” (NISSAN CHEMICAL INDUSTRIES, LTD., priority 2013, dated 2017).

Columns and labels:
Type in all cases: in vivo
[1] = tested on: Echinochloa oryzacola Vasing.; assay: Test Example 1: herbicidal activity, application before weed generation in submerged conditions; settings: Seventeenth Table; application herbicide amount 320 g/ha
Procedure, shortened: (§1)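 Submerged pot test: alluvial soil, 4 cm water, seeds sown mixed, 2.5-leaf rice transplanted; emulsion in water applied to surface day of sowing, dose g/ha; greenhouse 25–30° C.; 3 wk; 0–5 rating.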

[2] = tested on: Scirpus juncoides; assay: as above; settings: Seventeenth Table; application herbicide amount 320 g/ha
Procedure, shortened: as §1

[3] = tested on: Monochoria vaginalis; assay: as above; settings: Seventeenth Table; application herbicide amount 320 g/ha
Procedure, shortened: as §1

[4] = tested on: Glycine max; assay: Test Example 4: effect on crop by application to foliage (diluvial soil, plastic box); settings: application to foliage, 320 g/ha
Procedure, shortened: (§2)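 Read-out is a 0–5 visual grade of herbicidal ratio (5: ≥90%, almost withered; 0: ≤5%) taken three weeks after treatment. Compound was applied as a diluted emulsion to stem and leaf parts of 14-day greenhouse-grown plants (25° C. to 30° C.) at rates expressed as g/ha.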

[5] = tested on: Brassica campestris L.; assay: as above; settings: application to foliage, 320 g/ha
Procedure, shortened: as §2

[6] = tested on: directly sowed Oryza sativa; assay: as above; settings: application to foliage, 320 g/ha
Procedure, shortened: as §2

[7] = tested on: Triticum aestivum; assay: as above; settings: application to foliage, 320 g/ha
Procedure, shortened: as §2

[8] = tested on: Zea mays; assay: as above; settings: application to foliage, 320 g/ha
Procedure, shortened: as §2

[9] = tested on: Beta vulgaris ssp. vulgaris; assay: as above; settings: application to foliage, 320 g/ha
Procedure, shortened: as §2

Row | SMILES | A (Echinochloa oryzicola Vasing.) herbicidal ratio grade [1] | B (Scirpus juncoides) herbicidal ratio grade [2] | C (Monochoria vaginalis) herbicidal ratio grade [3] | effect on crop, c (Glycine max) [4] | effect on crop, g (Brassica campestris L.) [5] | effect on crop, d (directly sowed Oryza sativa) [6] | effect on crop, e (Triticum aestivum) [7] | effect on crop, b (Zea mays) [8] | effect on crop, f (Beta vulgaris ssp. vulgaris) [9]
1 | C=CCN(C)c1nnc2c(C(=O)Nc3nnnn3C)ccc(C(F)(F)F)n12 [2-100] | 5 (Herbicidal ratio of 90% or more (almost completely withered)) | 5 (Herbicidal ratio of 90% or more (almost completely withered)) | 5 (Herbicidal ratio of 90% or more (almost completely withered)) | 0 (Herbicidal ratio of 5% or less (almost no effect)) | 5 (Herbicidal ratio of 90% or more (almost completely withered)) | 4 (Herbicidal ratio of 70% or more and less than 90%) | 0 (Herbicidal ratio of 5% or less (almost no effect)) | 5 (Herbicidal ratio of 90% or more (almost completely withered)) | 5 (Herbicidal ratio of 90% or more (almost completely withered))
2 | COCCSc1nnc2c(C(=O)Nc3nnnn3C)ccc(C(F)(F)F)n12 [2-101] | 5 (Herbicidal ratio of 90% or more (almost completely withered)) | 5 (Herbicidal ratio of 90% or more (almost completely withered)) | 5 (Herbicidal ratio of 90% or more (almost completely withered)) | 2 (Herbicidal ratio of 20% or more and less than 40%) | 5 (Herbicidal ratio of 90% or more (almost completely withered)) | 5 (Herbicidal ratio of 90% or more (almost completely withered)) | 3 (Herbicidal ratio of 40% or more and less than 70%) | 4 (Herbicidal ratio of 70% or more and less than 90%) | 5 (Herbicidal ratio of 90% or more (almost completely withered))
3 | C=CCSc1nnc2c(C(=O)Nc3nnnn3C)ccc(C(F)(F)F)n12 [2-102] | 5 (Herbicidal ratio of 90% or more (almost completely withered)) | 5 (Herbicidal ratio of 90% or more (almost completely withered)) | 4 (Herbicidal ratio of 70% or more and less than 90%) | 0 (Herbicidal ratio of 5% or less (almost no effect)) | 3 (Herbicidal ratio of 40% or more and less than 70%) | 4 (Herbicidal ratio of 70% or more and less than 90%) | 1 (Herbicidal ratio of 5% or more and less than 20%) | 1 (Herbicidal ratio of 5% or more and less than 20%) | 5 (Herbicidal ratio of 90% or more (almost completely withered))
4 | C#CCSc1nnc2c(C(=O)Nc3nnnn3C)ccc(C(F)(F)F)n12 [2-103] | 5 (Herbicidal ratio of 90% or more (almost completely withered)) | 4 (Herbicidal ratio of 70% or more and less than 90%) | 5 (Herbicidal ratio of 90% or more (almost completely withered)) | 0 (Herbicidal ratio of 5% or less (almost no effect)) | 3 (Herbicidal ratio of 40% or more and less than 70%) | 4 (Herbicidal ratio of 70% or more and less than 90%) | 0 (Herbicidal ratio of 5% or less (almost no effect)) | 2 (Herbicidal ratio of 20% or more and less than 40%) | 5 (Herbicidal ratio of 90% or more (almost completely withered))
5 | CC#Cc1nnc2c(C(=O)Nc3nnnn3C)ccc(C(F)(F)F)n12 [2-106] | 5 (Herbicidal ratio of 90% or more (almost completely withered)) | 3 (Herbicidal ratio of 40% or more and less than 70%) | 4 (Herbicidal ratio of 70% or more and less than 90%) | 0 (Herbicidal ratio of 5% or less (almost no effect)) | 3 (Herbicidal ratio of 40% or more and less than 70%) | 4 (Herbicidal ratio of 70% or more and less than 90%) | 0 (Herbicidal ratio of 5% or less (almost no effect)) | 0 (Herbicidal ratio of 5% or less (almost no effect)) | 5 (Herbicidal ratio of 90% or more (almost completely withered))
6 | CC(=O)OCc1nnc2c(C(=O)Nc3nnnn3C)ccc(C(F)(F)F)n12 [2-107] | 2 (Herbicidal ratio of 20% or more and less than 40%) | 3 (Herbicidal ratio of 40% or more and less than 70%) | 2 (Herbicidal ratio of 20% or more and less than 40%) | 0 (Herbicidal ratio of 5% or less (almost no effect)) | 4 (Herbicidal ratio of 70% or more and less than 90%) | 5 (Herbicidal ratio of 90% or more (almost completely withered)) | 0 (Herbicidal ratio of 5% or less (almost no effect)) | 3 (Herbicidal ratio of 40% or more and less than 70%) | 5 (Herbicidal ratio of 90% or more (almost completely withered))
7 | Cn1nnnc1NC(=O)c1ccc(C(F)(F)F)n2c(CO)nnc12 [2-108] | 4 (Herbicidal ratio of 70% or more and less than 90%) | 3 (Herbicidal ratio of 40% or more and less than 70%) | 2 (Herbicidal ratio of 20% or more and less than 40%) | 0 (Herbicidal ratio of 5% or less (almost no effect)) | 5 (Herbicidal ratio of 90% or more (almost completely withered)) | 4 (Herbicidal ratio of 70% or more and less than 90%) | 1 (Herbicidal ratio of 5% or more and less than 20%) | 4 (Herbicidal ratio of 70% or more and less than 90%) | 5 (Herbicidal ratio of 90% or more (almost completely withered))
8 | Cn1nnnc1NC(=O)c1ccc(C(F)(F)F)n2c(C3(C)CC3(Cl)Cl)nnc12 (stereo not drawn) [2-110] | 5 (Herbicidal ratio of 90% or more (almost completely withered)) | 5 (Herbicidal ratio of 90% or more (almost completely withered)) | 5 (Herbicidal ratio of 90% or more (almost completely withered)) | 0 (Herbicidal ratio of 5% or less (almost no effect)) | 4 (Herbicidal ratio of 70% or more and less than 90%) | 4 (Herbicidal ratio of 70% or more and less than 90%) | 3 (Herbicidal ratio of 40% or more and less than 70%) | 4 (Herbicidal ratio of 70% or more and less than 90%) | 5 (Herbicidal ratio of 90% or more (almost completely withered))
